The test system of series [1] is Escherichia coli ATCC 25922. The method, boiled down:
(§1)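 Peptides were made up as 1 mg/mL stocks in sterile water. Colonies in 0.85% saline were set to 0.5 McFarland, then diluted in cation-adjusted Mueller-Hinton II broth to about 5×10^5 CFU/mL. Inoculum was combined with two-fold serial peptide dilutions in water containing 0.002% (final) polysorbate 80.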

Series [2] relates to Escherichia coli MCR-1 Af 45. To be noted: Mueller-Hinton broth II, 18-20 hours at 35° C. The method, boiled down: as §1
The subject of series [3] is Klebsiella pneumoniae SSI3010. The method, boiled down:
as §1

Series [4] has as its system human red blood cells (hRBC). The experiment in a line: Hemolysis of human red blood cells. In kind it is cell-based. In a few lines: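 Percent hemolysis is OD540 of peptide-treated supernatant relative to water-lysed cells. Each peptide was tested at 200 μg/mL against 20% (v/v) washed human erythrocytes. Incubation was 1 h at 37 °C, 300 rpm.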
[5] abbreviates: Mueller-Hinton broth II, 18-20 hours at 35° C.

Where two headings read alike, the source gives them in different places. Bridge positions count the residues as written; N and C are the ends. Square brackets hold non-standard residues; d marks the D form. Peptide text beside a SMILES is read from it. * marks the point of attachment. Val(Nα-amidino) = CC(C)[C@H](NC(=N)N)C(=O)*; Pro(4R-NH2) = N[C@H]1CN[C@H](C(=O)O)C1; Pen = CC(C)(S)[C@H](N)C(=O)O; dDab = NCC[C@@H](N)C(=O)O; Dab = NCC[C@H](N)C(=O)O

Turning to `CC[C@H](C)[C@H](NC(=O)[C@@H](NC(=O)[C@@H]1C[C@@H](O)CN1C(=O)[C@@H](NC(=N)N)C(C)C)[C@@H](C)CC)C(=O)N[C@@H](Cc1ccc(O)cc1)C(=O)N[C@@H]1C(=O)N[C@@H](CC(N)=O)C(=O)N[C@@H](CCCNC(=N)N)C(=O)N[C@@H](CCN)C(=O)N[C@@H]([C@@H](C)O)C(=O)N[C@H](CCN)C(=O)N[C@@H](CCCCN)C(=O)N[C@H](C(=O)N[C@@H](CCN)C(=O)N[C@@H](CCCNC(=N)N)C(=O)N[C@@H](Cc2ccc(O)cc2)C(=O)O)CSSC1(C)C` [Example 189] (HELM PEPTIDE1{[CC(C)[C@H](NC(=N)N)C(=O)[*:2]].[Hyp].I.I.Y.[Pen].N.R.[Dab].T.[NCC[C@@H](N[*:1])C(=O)[*:2]].K.C.[Dab].R.Y}$PEPTIDE1,PEPTIDE1,6:R3-13:R3$$$V2.0), in series [1] (setting [5]), the “Escherichia coli ATCC 25922 MIC” value turned out to be 0.03125 µg/mL. Besides, the “Escherichia coli MCR-1 Af 45 MIC” value in series [2] came to 0.03125 µg/mL. The “Klebsiella pneumoniae SSI3010 MIC” value in series [3] (setting [5]) is 0.0625 µg/mL. Besides, the “Hemolysis at 0.2 g/L” value in series [4] (20% hRBC, 1 h at 37° C.) is 0%.

`CC[C@H](C)[C@H](NC(=O)[C@@H]1C[C@@H](N)CN1C(=O)[C@@H](NC(=N)N)C(C)C)C(=O)N[C@H](C(=O)N[C@@H](Cc1ccc(O)cc1)C(=O)N[C@@H]1C(=O)N[C@@H](CC(N)=O)C(=O)N[C@@H](CCCNC(=N)N)C(=O)N[C@@H](CCN)C(=O)N[C@@H]([C@@H](C)O)C(=O)N[C@H](CCN)C(=O)N[C@@H](CCCCN)C(=O)N[C@H](C(=O)N[C@@H](CCN)C(=O)N[C@@H](CCCNC(=N)N)C(=O)N[C@@H](Cc2ccc(O)cc2)C(=O)O)CSSC1(C)C)[C@@H](C)O` [Example 190] ({Val(Nα-amidino)}-[Pro(4R-NH2)]ITY[Pen]NR[Dab]T[dDab]KC[Dab]RY-OH; disulfide 5-12): in series [1] (ATCC 25922), the “Escherichia coli ATCC 25922 MIC” value was found to be 0.0625 µg/mL. For the same molecule, in series [2], the “Escherichia coli MCR-1 Af 45 MIC” value stood at 0.0625 µg/mL. In series [3] (SSI3010), the “Klebsiella pneumoniae SSI3010 MIC” value is 0.125 µg/mL. Besides, in series [4] (red cells of human, 1 h), the “Hemolysis at 0.2 g/L” value is 0%.

Regarding `CC[C@H](C)[C@H](NC(=O)[C@@H](NC(=O)[C@@H]1C[C@@H](N)CN1C(=O)[C@@H](NC(=N)N)C(C)C)[C@@H](C)CC)C(=O)N[C@@H](Cc1ccc(O)cc1)C(=O)N[C@@H]1C(=O)N[C@@H](CC(N)=O)C(=O)N[C@@H](CCCNC(=N)N)C(=O)N[C@@H](CCN)C(=O)N[C@@H]([C@@H](C)O)C(=O)N[C@H](CCN)C(=O)N[C@@H](CCCCN)C(=O)N[C@H](C(=O)N[C@@H](CCN)C(=O)N[C@@H](CCCNC(=N)N)C(=O)N[C@@H](Cc2ccc(O)cc2)C(=O)O)CSSC1(C)C` [Example 191] ({Val(Nα-amidino)}-[Pro(4R-NH2)]IIY[Pen]NR[Dab]T[dDab]KC[Dab]RY-OH; disulfide 5-12), in series [1] (ATCC 25922), the “Escherichia coli ATCC 25922 MIC” value was 0.0625 µg/mL. Also, in series [2], the “Escherichia coli MCR-1 Af 45 MIC” value turned out to be 0.0625 µg/mL. In series [3] (SSI3010), the “Klebsiella pneumoniae SSI3010 MIC” value was found to be 0.0625 µg/mL. In addition, in series [4] (red cells of human, 1 h), the “Hemolysis at 0.2 g/L” value is listed as 0%.

On to `CC[C@H](C)[C@H](NC(=O)[C@@H]1C[C@@H](O)CN1C(=O)[C@@H](NC(=N)N)C(C)C)C(=O)N[C@@H](Cc1ccc(O)cc1)C(=O)N[C@@H](Cc1ccc(O)cc1)C(=O)N[C@@H]1C(=O)N[C@@H](CC(N)=O)C(=O)N[C@@H](CCCNC(=N)N)C(=O)N[C@@H](CCN)C(=O)N[C@@H]([C@@H](C)O)C(=O)N[C@H](CCN)C(=O)N[C@@H](CCCCN)C(=O)N[C@H](C(=O)N[C@@H](CCC(N)=O)C(=O)N[C@@H](CCCNC(=N)N)C(=O)N[C@@H](Cc2ccc(O)cc2)C(=O)O)CSSC1(C)C` [Example 192] (HELM PEPTIDE1{[CC(C)[C@H](NC(=N)N)C(=O)[*:2]].[Hyp].I.Y.Y.[Pen].N.R.[Dab].T.[NCC[C@@H](N[*:1])C(=O)[*:2]].K.C.Q.R.Y}$PEPTIDE1,PEPTIDE1,6:R3-13:R3$$$V2.0), for which the “Escherichia coli ATCC 25922 MIC” value in series [1] (ATCC 25922) stood at 0.25 µg/mL. Further, in series [2], the “Escherichia coli MCR-1 Af 45 MIC” value is 0.25 µg/mL. In addition, in series [3] (SSI3010), the “Klebsiella pneumoniae SSI3010 MIC” value came to 0.25 µg/mL. Moreover, the “Hemolysis at 0.2 g/L” value in series [4] (red cells of human, 1 h) was found to be 0%.

`CC[C@H](C)[C@H](NC(=O)[C@@H]1C[C@@H](O)CN1C(=O)[C@@H](NC(=N)N)C(C)C)C(=O)N[C@H](C(=O)N[C@@H](Cc1ccc(O)cc1)C(=O)N[C@@H]1C(=O)N[C@@H](CCC(=O)O)C(=O)N[C@@H](CCCNC(=N)N)C(=O)N[C@@H](CCN)C(=O)N[C@@H]([C@@H](C)O)C(=O)N[C@H](CCN)C(=O)N[C@@H](CCCCN)C(=O)N[C@H](C(=O)N[C@@H](CCN)C(=O)N[C@@H](CCCNC(=N)N)C(=O)N[C@@H](Cc2ccc(O)cc2)C(=O)O)CSSC1(C)C)[C@@H](C)O` [Example 193] (HELM PEPTIDE1{[CC(C)[C@H](NC(=N)N)C(=O)[*:2]].[Hyp].I.T.Y.[Pen].E.R.[Dab].T.[NCC[C@@H](N[*:1])C(=O)[*:2]].K.C.[Dab].R.Y}$PEPTIDE1,PEPTIDE1,6:R3-13:R3$$$V2.0): the “Escherichia coli ATCC 25922 MIC” value in series [1] (ATCC 25922) was determined as 0.25 µg/mL. For the same molecule, in series [2], the “Escherichia coli MCR-1 Af 45 MIC” value turned out to be 0.25 µg/mL. Besides, the “Klebsiella pneumoniae SSI3010 MIC” value in series [3] (SSI3010) was 0.5 µg/mL. The “Hemolysis at 0.2 g/L” value in series [4] (red cells of human, 1 h) amounted to 0%.

With `CC[C@H](C)[C@H](NC(=O)[C@@H]1C[C@@H](O)CN1C(=O)[C@@H](NC(=N)N)C(C)C)C(=O)N[C@H](C(=O)N[C@@H](Cc1ccc(O)cc1)C(=O)N[C@@H]1C(=O)N[C@@H](Cc2c[nH]cn2)C(=O)N[C@@H](CCCNC(=N)N)C(=O)N[C@@H](CCN)C(=O)N[C@@H]([C@@H](C)O)C(=O)N[C@H](CCN)C(=O)N[C@@H](CCCCN)C(=O)N[C@H](C(=O)N[C@@H](CCN)C(=O)N[C@@H](CCCNC(=N)N)C(=O)N[C@@H](Cc2ccc(O)cc2)C(=O)O)CSSC1(C)C)[C@@H](C)O` [Example 194] (HELM PEPTIDE1{[CC(C)[C@H](NC(=N)N)C(=O)[*:2]].[Hyp].I.T.Y.[Pen].H.R.[Dab].T.[NCC[C@@H](N[*:1])C(=O)[*:2]].K.C.[Dab].R.Y}$PEPTIDE1,PEPTIDE1,6:R3-13:R3$$$V2.0), the “Escherichia coli ATCC 25922 MIC” value in series [1] (ATCC 25922) was 0.25 µg/mL. In addition, in series [2], the “Escherichia coli MCR-1 Af 45 MIC” value amounted to 0.125 µg/mL. The “Klebsiella pneumoniae SSI3010 MIC” value in series [3] (SSI3010) came out at 0.25 µg/mL. Further, the “Hemolysis at 0.2 g/L” value in series [4] (red cells of human, 1 h) was determined as 0%.

On to `CC[C@H](C)[C@H](NC(=O)[C@@H]1C[C@@H](O)CN1C(=O)[C@@H](NC(=N)N)C(C)C)C(=O)N[C@H](C(=O)N[C@@H](Cc1ccc(O)cc1)C(=O)N[C@@H]1C(=O)N[C@@H](CC(N)=O)C(=O)N[C@@H](CCCNC(=N)N)C(=O)N[C@@H](CCN)C(=O)N[C@@H]([C@@H](C)O)C(=O)N[C@H](CCN)C(=O)N[C@@H](CCN)C(=O)N[C@H](C(=O)N[C@@H](CCN)C(=O)N[C@@H](CCCNC(=N)N)C(=O)N[C@@H](Cc2ccc(O)cc2)C(=O)O)CSSC1(C)C)[C@@H](C)O` [Example 195] (HELM PEPTIDE1{[CC(C)[C@H](NC(=N)N)C(=O)[*:2]].[Hyp].I.T.Y.[Pen].N.R.[Dab].T.[NCC[C@@H](N[*:1])C(=O)[*:2]].[Dab].C.[Dab].R.Y}$PEPTIDE1,PEPTIDE1,6:R3-13:R3$$$V2.0), for which, in series [1] (ATCC 25922), the “Escherichia coli ATCC 25922 MIC” value amounted to 0.25 µg/mL. In addition, the “Escherichia coli MCR-1 Af 45 MIC” value in series [2] is 0.0625 µg/mL. In addition, in series [3] (SSI3010), the “Klebsiella pneumoniae SSI3010 MIC” value amounted to 0.125 µg/mL. Further, the “Hemolysis at 0.2 g/L” value in series [4] (red cells of human, 1 h) stood at 0%.

For `CC[C@H](C)[C@H](NC(=O)[C@@H]1C[C@@H](O)CN1C(=O)[C@@H](NC(=N)N)C(C)C)C(=O)N[C@H](C(=O)N[C@@H](Cc1ccc(O)cc1)C(=O)N[C@@H]1C(=O)N[C@@H](CC(N)=O)C(=O)N[C@@H](CCCNC(=N)N)C(=O)N[C@@H](CCN)C(=O)N[C@@H](CO)C(=O)N[C@H](CCN)C(=O)N[C@@H](CCCCN)C(=O)N[C@H](C(=O)N[C@@H](CCN)C(=O)N[C@@H](CCCNC(=N)N)C(=O)N[C@@H](Cc2ccc(O)cc2)C(=O)O)CSSC1(C)C)[C@@H](C)O` [Example 196] (HELM PEPTIDE1{[CC(C)[C@H](NC(=N)N)C(=O)[*:2]].[Hyp].I.T.Y.[Pen].N.R.[Dab].S.[NCC[C@@H](N[*:1])C(=O)[*:2]].K.C.[Dab].R.Y}$PEPTIDE1,PEPTIDE1,6:R3-13:R3$$$V2.0), the “Escherichia coli ATCC 25922 MIC” value in series [1] (ATCC 25922) amounted to 0.125 µg/mL. For the same molecule, the “Escherichia coli MCR-1 Af 45 MIC” value in series [2] was 0.0625 µg/mL. In addition, the “Klebsiella pneumoniae SSI3010 MIC” value in series [3] (SSI3010) came out at 0.125 µg/mL. Further, the “Hemolysis at 0.2 g/L” value in series [4] (red cells of human, 1 h) turned out to be 0%.

Take `CC[C@H](C)[C@H](NC(=O)[C@@H]1C[C@@H](O)CN1C(=O)[C@@H](NC(=N)N)C(C)C)C(=O)N[C@H](C(=O)N[C@@H](Cc1ccc(O)cc1)C(=O)N[C@@H]1C(=O)N[C@@H](CC(N)=O)C(=O)N[C@@H](CCCNC(=N)N)C(=O)N[C@@H](CCN)C(=O)N[C@@H](CO)C(=O)N[C@H](CCN)C(=O)N[C@@H](CCCCN)C(=O)N[C@H](C(=O)N[C@@H](CCN)C(=O)N[C@@H](CCN)C(=O)N[C@@H](Cc2ccc(O)cc2)C(=O)O)CSSC1(C)C)[C@@H](C)O` [Example 197] (HELM PEPTIDE1{[CC(C)[C@H](NC(=N)N)C(=O)[*:2]].[Hyp].I.T.Y.[Pen].N.R.[Dab].S.[NCC[C@@H](N[*:1])C(=O)[*:2]].K.C.[Dab].[Dab].Y}$PEPTIDE1,PEPTIDE1,6:R3-13:R3$$$V2.0): in series [1] (ATCC 25922), the “Escherichia coli ATCC 25922 MIC” value came out at 0.0625 µg/mL. Besides, the “Escherichia coli MCR-1 Af 45 MIC” value in series [2] stood at 0.0625 µg/mL. Further, the “Klebsiella pneumoniae SSI3010 MIC” value in series [3] (SSI3010) was determined as 0.125 µg/mL. Further, in series [4] (red cells of human, 1 h), the “Hemolysis at 0.2 g/L” value is 0%.
